The supplement of paper PMC4862054

Key:
Assay in all cases: normalised viability (% of control), CellTiter-Blue; higher = more viable cells (about 100 = DMSO control)
CAL-148 [1] = conditions: 3000 nM; incubation time: 72 h
How it was run: (§1)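 Breast cancer cell lines were treated for 72 h in 384-well format and measured by CellTiter-Blue fluorescence at 560/590 nm. Results were normalised per plate to vehicle (100) and a positive kill control (0). The entry is normalised viability at a single listed concentration of the series.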

CAL-85-1 [2] = conditions: 3000 nM; incubation time: 72 h
How it was run: as §1

DU-4475 [3] = conditions: 3000 nM; incubation time: 72 h
How it was run: as §1

MDA-MB-453 [4] = conditions: 3000 nM; incubation time: 72 h
How it was run: as §1

BT-474 = conditions: incubation time: 72 h
How it was run: as §1

BT-549 = conditions: incubation time: 72 h
How it was run: as §1

CAL-120 = conditions: incubation time: 72 h
How it was run: as §1

CAL-51 [5] = conditions: incubation time: 72 h
How it was run: as §1

CAL-85-1 [6] = conditions: incubation time: 72 h
How it was run: as §1

DU-4475 [7] = conditions: incubation time: 72 h
How it was run: as §1

HCC1143 = conditions: incubation time: 72 h
How it was run: as §1

HCC1599 = conditions: incubation time: 72 h
How it was run: as §1

HCC1937 = conditions: incubation time: 72 h
How it was run: as §1

Hs578T = conditions: incubation time: 72 h
How it was run: as §1

MDA-MB-231 = conditions: incubation time: 72 h
How it was run: as §1

MDA-MB-436 = conditions: incubation time: 72 h
How it was run: as §1

MDA-MB-453 [8] = conditions: incubation time: 72 h
How it was run: as §1

MDA-MB-468 = conditions: incubation time: 72 h
How it was run: as §1

MFM-223 = conditions: incubation time: 72 h
How it was run: as §1

SK-BR-3 = conditions: incubation time: 72 h
How it was run: as §1

CAL-148 [9] = conditions: 10000 nM; incubation time: 72 h
Experimental: (§2)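 DSRT, CellTiter-Blue viability, 72 h incubation. Signal is normalised to DMSO and benzethonium chloride controls. Value is the normalised response at dose 9.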

CAL-51 [10] = conditions: 10000 nM; incubation time: 72 h
Experimental: as §2

CAL-85-1 [11] = conditions: 10000 nM; incubation time: 72 h
Experimental: as §2

DU-4475 [12] = conditions: 10000 nM; incubation time: 72 h
Experimental: as §2

HDQ-P1 = conditions: 10000 nM; incubation time: 72 h
Experimental: as §2

MDA-MB-453 [13] = conditions: 10000 nM; incubation time: 72 h
Experimental: as §2

C[C@H]1C[C@@H]2[C@H]([C@@H](O)C[C@@]3(C)[C@H]2CC[C@]3(O)C(=O)CO)[C@@]2(C)C=CC(=O)C=C12 [Methylprednisolone]
Conditions	normalised viability [%]
CAL-51 [10]	92.5
CAL-85-1 [2]	101
CAL-85-1 [11]	91
CAL-148 [1]	96.8
CAL-148 [9]	106
DU-4475 [3]	97.9
DU-4475 [12]	87.4
HDQ-P1	123
MDA-MB-453 [4]	74.1
MDA-MB-453 [13]	75.7

normalised viability [%]
Conditions	3 nM	10 nM	30 nM	100 nM	1000 nM	10000 nM
BT-474	–	121	–	–	105	112
BT-549	–	89.4	–	–	77.8	78.4
CAL-51 [5]	100	–	100	98.2	–	–
CAL-85-1 [6]	87.6	–	102	109	–	–
CAL-120	–	89.7	–	–	79.3	81.1
DU-4475 [7]	84.7	–	83.5	86.4	–	–
HCC1143	–	89.8	–	–	111	92.5
HCC1599	–	105	–	–	102	92.5
HCC1937	–	80.2	–	–	106	80.4
Hs578T	–	102	–	–	116	111
MDA-MB-231	–	104	–	–	114	119
MDA-MB-436	–	108	–	–	92.2	108
MDA-MB-453 [8]	112	–	85.6	75.3	–	–
MDA-MB-468	–	92.7	–	–	117	88.2
MFM-223	–	89.4	–	–	86.3	74.8
SK-BR-3	–	107	–	–	97.6	91.4

O=C(O)C(=O)O.[NH-][C@@H]1CCCC[C@H]1[NH-].[Pt+2] [Oxaliplatin]
Conditions	normalised viability [%]
CAL-51 [10]	39
CAL-85-1 [2]	84.5
CAL-85-1 [11]	66.5
CAL-148 [1]	82.8
CAL-148 [9]	18.1
DU-4475 [3]	108
DU-4475 [12]	41.8
HDQ-P1	60.2
MDA-MB-453 [4]	100
MDA-MB-453 [13]	28.5

normalised viability [%]
Conditions	3 nM	10 nM	30 nM	100 nM	1000 nM	10000 nM
BT-474	–	125	–	–	118	83.5
BT-549	–	93.9	–	–	74.2	52.6
CAL-51 [5]	97.9	–	92.2	94.9	–	–
CAL-85-1 [6]	99	–	83.2	87.3	–	–
CAL-120	–	87.1	–	–	93.2	52.2
DU-4475 [7]	112	–	106	100	–	–
HCC1143	–	82.2	–	–	94.2	44
HCC1599	–	87.3	–	–	79.6	70
HCC1937	–	90.7	–	–	82.2	33.9
Hs578T	–	106	–	–	129	66.9
MDA-MB-231	–	92.2	–	–	83.5	48.9
MDA-MB-436	–	111	–	–	88.6	56.5
MDA-MB-453 [8]	119	–	101	113	–	–
MDA-MB-468	–	98.7	–	–	97.7	56.5
MFM-223	–	98.6	–	–	94.1	50.5
SK-BR-3	–	98.1	–	–	122	47.5

Nc1nc2[nH]cc(CCc3ccc(C(=O)N[C@@H](CCC(=O)O)C(=O)O)cc3)c2c(=O)[nH]1 [Pemetrexed]
Conditions	normalised viability [%]
CAL-51 [10]	91
CAL-85-1 [2]	62.6
CAL-85-1 [11]	55.4
CAL-148 [1]	99.3
CAL-148 [9]	66.5
DU-4475 [3]	124
DU-4475 [12]	99.7
HDQ-P1	106
MDA-MB-453 [4]	83
MDA-MB-453 [13]	92.6

normalised viability [%]
Conditions	3 nM	10 nM	30 nM	100 nM	1000 nM	10000 nM
BT-474	–	123	–	–	112	122
BT-549	–	90.8	–	–	90.7	79.6
CAL-51 [5]	105	–	100	107	–	–
CAL-85-1 [6]	99.6	–	91	101	–	–
CAL-120	–	84.2	–	–	77.4	63.3
DU-4475 [7]	106	–	117	108	–	–
HCC1143	–	90.8	–	–	77.4	72.2
HCC1599	–	106	–	–	80.2	106
HCC1937	–	89	–	–	93.4	85.5
Hs578T	–	124	–	–	106	82.5
MDA-MB-231	–	97.5	–	–	98.9	92.4
MDA-MB-436	–	107	–	–	75.3	82.5
MDA-MB-453 [8]	128	–	96	114	–	–
MDA-MB-468	–	97.7	–	–	71.9	99.5
MFM-223	–	96.2	–	–	101	98.2
SK-BR-3	–	97.5	–	–	59.2	62.2

COc1cc([C@@H]2c3cc4c(cc3[C@@H](O[C@@H]3O[C@@H]5CO[C@@H](c6cccs6)O[C@H]5[C@H](O)[C@H]3O)[C@H]3COC(=O)[C@H]23)OCO4)cc(OC)c1O [Teniposide]
Conditions	normalised viability [%]
CAL-51 [10]	3.14
CAL-85-1 [2]	41
CAL-85-1 [11]	26.4
CAL-148 [1]	9.86
CAL-148 [9]	0.81
DU-4475 [3]	2.12
DU-4475 [12]	-1.93
HDQ-P1	53.2
MDA-MB-453 [4]	52.4
MDA-MB-453 [13]	30.6

normalised viability [%]
Conditions	3 nM	10 nM	30 nM	100 nM	1000 nM	10000 nM
BT-474	–	118	–	–	113	50.8
BT-549	–	101	–	–	62.4	8.99
CAL-51 [5]	98.2	–	78.2	43.4	–	–
CAL-85-1 [6]	103	–	89.7	94.5	–	–
CAL-120	–	108	–	–	55.9	10.3
DU-4475 [7]	82	–	67.8	28.1	–	–
HCC1143	–	95.6	–	–	49.5	20.5
HCC1599	–	80.8	–	–	65.1	47.9
HCC1937	–	82.3	–	–	21	18.8
Hs578T	–	109	–	–	94.5	12.2
MDA-MB-231	–	103	–	–	73.7	13.8
MDA-MB-436	–	92.1	–	–	55.1	23.6
MDA-MB-453 [8]	135	–	92.8	109	–	–
MDA-MB-468	–	99.1	–	–	54.2	15.6
MFM-223	–	99.3	–	–	84.4	13.1
SK-BR-3	–	105	–	–	20.9	7.84
